From BindingDB's records for patent US20240287037 (Plexium, 2024)

Target: Protein cereblon (Homo sapiens, UniProt Q96SW2)
Test: Bioluminescence Resonance Energy Transfer (BRET)
Protocol: 2 uL of 10 uM CRBN tracer (diluted 1:5 in Tracer Dilution Buffer) was added to each well. Plates were centrifuged at 320 g for 1 min at room temperature. […] Plates were shaken for 2 minutes on a microplate shaker to mix compounds. Plates were centrifuged at 320 g for 1 min at room temperature, and subsequently incubated for 2 hours at 37 C.After incubation, plates were allowed to cool to room temperature for 15 minutes. […] Plates were read on a CLARIOstar microplate reader (BMG LabTech), measuring at 450 nm (donor emission) and 610 nm (acceptor emission).

Chain of Protein cereblon (Q96SW2 whole entry): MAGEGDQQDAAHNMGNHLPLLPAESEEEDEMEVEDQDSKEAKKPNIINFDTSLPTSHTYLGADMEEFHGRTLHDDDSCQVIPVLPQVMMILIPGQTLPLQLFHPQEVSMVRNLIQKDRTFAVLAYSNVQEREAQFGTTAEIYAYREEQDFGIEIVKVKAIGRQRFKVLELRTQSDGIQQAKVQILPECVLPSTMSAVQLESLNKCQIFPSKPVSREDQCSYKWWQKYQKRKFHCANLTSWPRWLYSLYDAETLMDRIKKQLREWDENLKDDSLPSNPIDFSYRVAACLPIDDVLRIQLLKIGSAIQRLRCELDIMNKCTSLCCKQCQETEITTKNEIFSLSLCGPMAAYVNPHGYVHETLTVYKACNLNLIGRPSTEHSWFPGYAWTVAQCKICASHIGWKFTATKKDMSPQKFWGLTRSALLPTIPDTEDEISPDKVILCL

EC50: 0.028 µM
SMILES: N#CC1(C2CN([C@H]3CCCC[C@@H]3Oc3ccc4c(c3)CN(C3CCC(=O)NC3=O)C4=O)C2)CCC1 (stereo partly specified) [US20240287037, Example 23]
